In patent US12016841B2, “Methods and compositions for treatment of presbyopia, mydriasis, and other ocular disorders” (Ocuphire Pharma, Inc., priority 2018, dated 2024):
Structures can show the parent of a compound that is named as a salt.

Tested on: patients with pupil sizes of at least 7 mm in diameter under dim light conditions
Experiment: Pupil diameter after one drop of 0.2%, 0.4% or 0.8% (w/v) phentolamine mesylate solution (clinical study, NeurOptics pupilometer)
Type: in vivo, human
Procedure: Reduction in pupil diameter can be analyzed and characterized using procedures such as those described below in which a phentolamine mesylate solution was administered to patients' eyes and change in pupil diameter was measured and characterized. […] The phentolamine mesylate solution contained either 0.2% (w/v) phentolamine mesylate, 0.4% (w/v) phentolamine mesylate, or 0.8% (w/v) phentolamine mesylate.
Sixteen patients were randomized into four groups (of four subjects each). Each group was treated on three successive study visits separated by at least 4 days with one drop of ophthalmic oxymetazoline solution (Visine LR®) in each eye followed by one drop test article in each eye. The test article was a 0.2% (w/v) phentolamine mesylate solution, 0.4% (w/v) phentolamine mesylate solution, 0.8% (w/v) phentolamine mesylate solution, or placebo. Test articles contained the designed amount of phentolamine mesylate in a solution of Tears Naturale II® (from Alcon Labs). Placebo was just Tears Naturale II® (from Alcon Labs). Tears Naturale II® (from Alcon Labs) contains Dextran 70 (0.1% by weight), Hydroxypropyl Methylcellulose 2910 (0.3% by weight), Polyquaternium-1 (0.001% by weight), potassium chloride, water (purified), sodium borate, sodium chloride, and hydrochloric acid and/or sodium hydroxide as necessary to adjust the pH. The patients' pupil diameters were recorded at baseline (i.e., prior to treatment administration), and at 30 minutes, 1 hour, 2 hours, 4 hours, and 8 hours after administration of test articles. Total study duration was approximately nine hours.
Pupil diameters were measured to within 0.1 mm for each eye at baseline and each subsequent time point using a NeurOptics™ pupilometer. Comparisons of changes in mean values within treatment groups were tested for significance using two-tailed paired two sample t-tests with a threshold for significance set at p<0.01 (Bonferroni Correction for multiple paired t-tests). Differences between treatment groups with respect to mean values for pupil size over the course of the study were tested for significance using repeated measure ANOVA (which discards data from subjects lacking any data points). Differences in means between treatment groups at individual time points were tested for significance using one-way ANOVA.

Structure (SMILES)	mean pupil diameters compared to placebo (ad hoc Fisher's tests) (any concentration, 2, 4 and 8 hours)	mean changes in pupil diameters from baseline as a function of time (over the course of the study)	differences in mean pupil diameters between different doses (any time point)	mean pupil diameters (one hour post treatment)
Cc1ccc(N(CC2=NCCN2)c2cccc(O)c2)cc1 [phentolamine mesylate]	significant differences in mean pupil diameters	significant reductions in pupil size	–	–
Cc1ccc(N(CC2=NCCN2)c2cccc(O)c2)cc1 [phentolamine]	–	–	no statistically significant differences	lower
